Results published in US11767295B2, “Isoindole derivative” (TIANJIN HEMAY PHARMACEUTICAL CO., LTD., priority 2018, dated 2023).

Experiments:
Assay type in all cases: in vivo
[1] = test system: Phorbol ester (TPA)-induced ear swelling in mice; assay: Inhibition of phorbol ester (TPA)-induced ear swelling in mice (Biological Example 5); conditions: ICR mice, 5 hours after TPA modeling; for Ear Swelling Rate / Inhibitory Rate of Ear Swelling Degree: 2 mg/mouse on right ear; for Ear Swelling Rate: (right−left)/left ear weight; for Inhibitory Rate of Ear Swelling Degree: vs model and blank control; for Ear Swelling Degree: 50 mg/mL in acetone, 40 μL in 2 administrations (2 mg/mouse)
Method: (§1) 72 male ICR mice were selected and divided into 9 groups. There were 8 mice in each group.
(§2) Before the test, the animals were grouped and the hair around the right ear of the mice was removed.
(§3) 20 μL of respective drug was applied to the animals in each test group (a blank solvent was applied to the model control group). Modeling and induction were carried out after 1 h 10 min. Except for the blank group, 20 μL of TPA at a concentration of 125 μg/mL were applied to the right ears of the animals for induction. After induction for 10 minutes, 20 μL of respective drug were applied to the right ears of the animals in each test group (a blank solvent was applied to the model control group).
After modeling for 5 hours, ear pieces of both sides on the same location of animals in each group were taken with a punch and weighed to calculate the ear swelling degree, ear swelling rate and inhibitory rate.
(§4) The ear swelling degree and ear swelling rate after modeling and administration for 5 hours were analyzed and tested with One-Way ANOVA multiple-group test index in SPSS17.0. P<0.05 indicated there were statistical differences. Ear swelling degree (mg)=right ear weight (mg)−left ear weight (mg); Ear swelling rate (%)=(right ear weight−left ear weight)/left ear weight×100%; Inhibitory rate of ear swelling degree (%)=1−(ear swelling degree of drug administration group−ear swelling degree of blank control group)/(ear swelling degree of model control group−ear swelling degree of blank control group)×100%.

[2] = test system: DNCB-induced atopic dermatitis in Balb/c mice; assay: Efficacy evaluation test of DNCB-induced atopic dermatitis in Balb/c mice model (Biological Example 2); conditions: BID × 10; for Inhibitory Rate of Ear Swelling / Weight Changes of Animals, Day 10 / Weight Changes of Animals, Day 17 / Weight Changes of Animals, Day 18 / Ear Swelling Degree / IgE Concentration / Inhibitory Rate of IgE Concentration: 1 mg/mouse on ear; for Inhibitory Rate of Ear Swelling / Ear Swelling Degree / IgE Concentration / Inhibitory Rate of IgE Concentration: 18th day; for Inhibitory Rate of Ear Swelling / Inhibitory Rate of IgE Concentration: vs model and blank control; for Weight Changes of Animals, Day 1 / Weight Changes of Animals, Day 10 / Weight Changes of Animals, Day 17 / Weight Changes of Animals, Day 18: Balb/c mice, Mean ± S.D.; for Weight Changes of Animals, Day 1: 1 mg/mouse (50 mg/mL, 20 μL) on ear; for Ear Swelling Degree: right minus left ear piece weight; for IgE Concentration / Inhibitory Rate of IgE Concentration: serum
Method: 70 healthy male SPF Balb/c mice, each of which the weight was 19-21 g, were randomly divided into 7 groups by body weight. There were 10 mice in each group.
(§5) Before the test, the hair around the right ear of the mouse was removed to reduce the interference in the drug adhesion to the hair.
(§6) The start of the test was recorded as Day 1. After the end of the 18th day of the test, blood was taken from each animal to detect the concentration of immunoglobulin (IgE) in the serum (in accordance with the kit instructions). Both ears of the animal were cut off. Ear pieces were cut by an 8 mm punch at the fixed position of the ears and weighed. Differences in the swelling degrees of two ears were calculated.
(§7) The IgE concentrations in the serum of different groups on the 18th day were analyzed and compared statistically with One-Way Anova in SPSS 17, respectively. The G test method was used to delete outliers. p<0.05 indicated there were statistical differences. Ear swelling degree (mg)=right ear weight (mg)−left ear weight (mg); Inhibitory rate of ear swelling degree (%)=1−(ear swelling degree of drug administration group−ear swelling degree of blank control group)/(ear swelling degree of model control group−ear swelling degree of blank control group)×100%; Inhibitory rate of IgE (%)=1−(IgE concentration in administration group−IgE concentration in blank control group)/(IgE concentration in model control group−IgE concentration in blank control group)×100%.

[3] = test system: Phorbol ester (TPA)-induced ear swelling in mice; assay: Inhibition of phorbol ester (TPA)-induced ear swelling in mice (Biological Example 6); conditions: ICR mice, 5 hours after TPA modeling; for Ear Swelling Rate / Inhibitory Rate of Ear Swelling Degree: 2 mg/mouse on right ear; for Ear Swelling Rate: (right−left)/left ear weight; for Inhibitory Rate of Ear Swelling Degree: vs model and blank control; for Ear Swelling Degree: 50 mg/mL in acetone, 40 μL in 2 administrations (2 mg/mouse)
Method: as §1, §2, §3
After modeling for 5 hours, ear pieces of both sides at the same location of animals in each group were taken with a punch and weighed to calculate the ear swelling degree, ear swelling rate and inhibitory rate.
as §4, with “P<0.05 indicated there were statistical differences.” left out, “(%)=1−(swelling” for “(%)=1−(ear swelling”, “group−swelling” for “group−ear swelling”, “group)/(swelling” for “group)/(ear swelling”

[4] = test system: DNCB-induced atopic dermatitis in Balb/c mice; assay: Efficacy evaluation test of DNCB-induced atopic dermatitis in Balb/c mice model (Biological Example 1); conditions: BID × 10
Method: 60 healthy male SPF Balb/c mice, each of which the body weight was 19-21 g, were randomly divided into 6 groups by body weight. There were 10 mice in each group.
as §5
as §6, with “Day 1. The specific time for measuring ear thickness was slightly adjusted based on FIG.” for “Day”
as §7, with “The changes in mouse ear thickness and the ear weights of the same area and the IgE concentrations” for “The IgE concentrations”, “the serum among different groups” for “the serum of different groups”, “weight (mg); Ear thickness change (mm)=right ear thickness (mm)−left ear thickness (mm); Inhibitory rate” for “weight (mg); Inhibitory rate”, “rate of ear thickness change (%)=1−(ear thickness change of drug administration group−ear thickness change of blank control group)/(ear thickness change of model control group−ear thickness change of blank control group)×100%; Inhibitory rate of IgE (%)=1−(IgE” for “rate of IgE (%)=1−(IgE”

[5] = Balb/c mice, 1 mg/mouse on ear, Day 10, Mean ± S.D.
[6] = Balb/c mice, 1 mg/mouse on ear, Day 17, Mean ± S.D.
[7] = Balb/c mice, 1 mg/mouse on ear, Day 18, Mean ± S.D.

| SMILES | Ear Swelling Rate [1] | Inhibitory Rate of Ear Swelling Degree [1] | Ear Swelling Degree [1] | Ear Swelling Rate [3] | Inhibitory Rate of Ear Swelling Degree [3] | Ear Swelling Degree [3] | also measured |
| --- | --- | --- | --- | --- | --- | --- | --- |
| CCOc1cc(C(CC(=O)OC)N2C(=O)c3ccc(NC(C)=O)cc3C2=O)ccc1OC (stereo not drawn) [Example 25, methyl 3-(5-acetamido-1,3-dioxoisoindolin-2-yl)-3-(3-ethoxy-4-methoxyphenyl)propionate] | 59.1 ± 17.5 % | 73.6% | 8.5 ± 2.7 mg | – | – | – | – |
| CCOC(=O)CC(c1ccc(OC)c(OCC)c1)N1C(=O)c2cccc(NC(C)=O)c2C1=O (stereo not drawn) [Example 6, ethyl 3-(4-acetamido-1,3-dioxoisoindolin-2-yl)-3-(3-ethoxy-4-methoxyphenyl)propionate] | 36.4 ± 11.9 % | 87.3% | 5.1 ± 1.6 mg | – | – | – | Inhibitory Rate of Ear Swelling [2]: 41.7%; Weight Changes of Animals, Day 1 [2]: 21.4 ± 0.7 g; Weight Changes of Animals, Day 10 [2]: 22.8 ± 1.4 g; Weight Changes of Animals, Day 17 [2]: 23.3 ± 1.4 g; Weight Changes of Animals, Day 18 [2]: 22.7 ± 1.5 g; Ear Swelling Degree [2]: 17.1 ± 4.0 mg; IgE Concentration [2]: 5871.9 ± 2973.8 ng/mL; Inhibitory Rate of IgE Concentration [2]: 32.8% |
| CCOc1cc(C(CC(=O)OC)N2C(=O)c3cccc(N(C)C(C)=O)c3C2=O)ccc1OC (stereo not drawn) [Example 24, methyl 3-(4-(N-methylacetamido)-1,3-dioxoisoindolin-2-yl)-3-(3-ethoxy-4-methoxyphenyl)propionate] | 43.0 ± 11.8 % | 84.2% | 5.9 ± 1.7 mg | – | – | – | – |
| CCOc1cc(C(CC(=O)OC)N2C(=O)c3cccc(NC(C)=O)c3C2=O)ccc1OC(C)C (stereo not drawn) [Example 18, methyl 3-(4-acetamido-1,3-dioxoisoindolin-2-yl)-3-(3-ethoxy-4-isopropoxyphenyl)propionate] | – | – | – | 33.9 ± 14.0 % | 88.1% | 4.8 ± 1.9 mg | – |
| CCCOc1cc(C(CC(=O)OC)N2C(=O)c3cccc(NC(C)=O)c3C2=O)ccc1OC (stereo not drawn) [Example 29, methyl 3-(4-acetamido-1,3-dioxoisoindolin-2-yl)-3-(3-propoxy-4-methoxyphenyl)propionate] | – | – | – | 46.8 ± 33.9 % | 81.5% | 6.5 ± 4.6 mg | – |
| CCOc1cc(C(CC(=O)OC(C)C)N2C(=O)c3cccc(NC(C)=O)c3C2=O)ccc1OC (stereo not drawn) [Example 12, isopropyl 3-(4-acetamido-1,3-dioxoisoindolin-2-yl)-3-(3-ethoxy-4-methoxyphenyl)propionate] | 39.6 ± 14.0 % | 84.8% | 5.8 ± 2.3 mg | – | – | – | – |
| CCOc1cc(C(CC(=O)OC)N2C(=O)c3cccc(NC(C)=O)c3C2=O)ccc1OC1CCCC1 (stereo not drawn) [Example 20, methyl 3-(4-acetamido-1,3-dioxoisoindolin-2-yl)-3-(3-ethoxy-4-cyclopentyloxyphenyl)propionate] | – | – | – | 63.9 ± 19.3 % | 73.0% | 8.8 ± 2.8 mg | – |
| COC(=O)CC(c1ccc(OC)c(OC2CCCC2)c1)N1C(=O)c2cccc(NC(C)=O)c2C1=O (stereo not drawn) [Example 30, methyl 3-(4-acetamido-1,3-dioxoisoindolin-2-yl)-3-(3-cyclopentyloxy-4-methoxyphenyl)propionate] | – | – | – | 85.0 ± 27.4 % | 60.8% | 12.0 ± 3.5 mg | – |
| CCOc1cc(C(CC(=O)OC)N2C(=O)c3cccc(O)c3C2=O)ccc1OC (stereo not drawn) [Example 32, methyl 3-(4-hydroxy-1,3-dioxoisoindolin-2-yl)-3-(3-ethoxy-4-methoxyphenyl)propionate] | – | – | – | 93.3 ± 28.1 % | 55.6% | 13.4 ± 4.0 mg | – |
| CCOC(=O)C[C@H](c1ccc(OC)c(OCC)c1)N1C(=O)c2cccc(NC(C)=O)c2C1=O [Example 51, ethyl (R)-3-(4-acetamido-1,3-dioxoisoindolin-2-yl)-3-(3-ethoxy-4-methoxyphenyl)propionate] | – | – | – | – | – | – | Inhibitory Rate of Ear Swelling [2]: 25.0%; Weight Changes of Animals, Day 1 [2]: 21.8 ± 0.7 g; Weight Changes of Animals, Day 10 [2]: 22.8 ± 1.2 g; Weight Changes of Animals, Day 17 [2]: 23.1 ± 1.1 g; Weight Changes of Animals, Day 18 [2]: 22.9 ± 1.3 g; Ear Swelling Degree [2]: 21.7 ± 4.5 mg; IgE Concentration [2]: 6599.5 ± 2996.0 ng/mL; Inhibitory Rate of IgE Concentration [2]: 23.3% |
| COC(=O)CC(c1ccc(OC)c(OC)c1)N1C(=O)c2cccc(NC(C)=O)c2C1=O (stereo not drawn) [Example 3, methyl 3-(4-acetamido-1,3-dioxoisoindolin-2-yl)-3-(3,4-dimethoxyphenyl)propionate] | 42.1 ± 19.3 % | 83.7% | 6.0 ± 2.5 mg | – | – | – | Inhibitory Rate of Ear Swelling Degree ([4]; 1 mg/mouse on ear, 18th day, vs model and blank control): 37.8%; Weight Changes of Animals, Day 1 ([4]; Balb/c mice, 1 mg/mouse (50 mg/mL, 20 μL) on ear, Day 1, Mean ± S.D.): 20.6 ± 0.8 g; Inhibitory Rate of Ear Thickness ([4]; Balb/c mice, 1 mg/mouse on ear, 18th day, vs model and blank control): 34.0%; Ear Thickness Change, Day 1 ([4]; Balb/c mice, 1 mg/mouse on ear, Day 1, Mean ± S.D.): 0.21 ± 0.01 mm; Ear Thickness Change, Day 10 [4, 5]: 0.38 ± 0.10 mm; Weight Changes of Animals, Day 10 [4, 5]: 22.3 ± 1.4 g; Ear Thickness Change, Day 17 [4, 6]: 0.58 ± 0.09 mm; Weight Changes of Animals, Day 17 [4, 6]: 22.1 ± 1.8 g; Ear Thickness Change, Day 18 [4, 7]: 0.58 ± 0.10 mm; Weight Changes of Animals, Day 18 [4, 7]: 21.7 ± 1.8 g; Ear Thickness ([4]; Table 4, Balb/c mice, 1 mg/mouse on ear, 18th day): 0.58 ± 0.10 mm; Ear Swelling Degree ([4]; right minus left ear piece weight (8 mm punch), 1 mg/mouse on ear, 18th day): 15.7 ± 4.5 mg; IgE Concentration ([4]; serum, 1 mg/mouse on ear, 18th day): 6526.5 ± 2171.9 ng/mL; Inhibitory Rate of IgE Concentration ([4]; serum, 1 mg/mouse on ear, 18th day, vs model and blank control): 27.0% |
